Key:
primary human adipocytes = experiment: Lipolysis in primary human adipocytes; type: cell-based
Method: Figure 3 NG-497 inhibits lipolysis in human SGBS and primary human adipocytes. SGBS adipocytes were preincubated with NG-497 for 1 h at the indicated concentrations. Subsequently, lipolysis was stimulated with isoproterenol (1 μM) and (a) FA and (b) glycerol release was determined after 1 h using commercial kits. (c) Dose-dependent inhibition of isoproterenol-stimulated FA release from SGBS adipocytes by the HSL inhibitor 76-068 (HSLi). […] (e) DAG accumulation in SGBS adipocytes was analyzed by thin-layer chromatography (TLC) following 1 h incubation with HSLi (25 μM), NG-497 (40 μM), and a combination of both inhibitors. […] Subsequently, basal and Forskolin (5 μM)-stimulated release of radioactivity was determined via liquid scintillation over a period of 2 h in the presence or absence of NG-497 (40 μM). FA release was calculated based on FA concentrations in conditioned media after 2 h as determined using a commercial kit. […] Subsequently, the medium was changed and FA release was monitored over a period of 3 h under the indicated conditions. […] Statistical significance was determined via ANOVA followed by Bonferroni post hoc test (^#p < 0.05; ^##p < 0.01; ^###p < 0.001). […]
Released free fatty acids were quantified via NEFA C kit (Fujifilm Wako Chemicals, Neuss, Germany) and release of p-nitrophenol was measured at 405 nm. […]

human ATGL = biological target: T1, human ATGL (Homo sapiens, UniProt Q96AD5); set-up: method as in PMID 28327588; conditions: cited from earlier work
T1 construct: host or cells: Expi293 cells, crude lysate
T1 sequence (Q96AD5 1-504): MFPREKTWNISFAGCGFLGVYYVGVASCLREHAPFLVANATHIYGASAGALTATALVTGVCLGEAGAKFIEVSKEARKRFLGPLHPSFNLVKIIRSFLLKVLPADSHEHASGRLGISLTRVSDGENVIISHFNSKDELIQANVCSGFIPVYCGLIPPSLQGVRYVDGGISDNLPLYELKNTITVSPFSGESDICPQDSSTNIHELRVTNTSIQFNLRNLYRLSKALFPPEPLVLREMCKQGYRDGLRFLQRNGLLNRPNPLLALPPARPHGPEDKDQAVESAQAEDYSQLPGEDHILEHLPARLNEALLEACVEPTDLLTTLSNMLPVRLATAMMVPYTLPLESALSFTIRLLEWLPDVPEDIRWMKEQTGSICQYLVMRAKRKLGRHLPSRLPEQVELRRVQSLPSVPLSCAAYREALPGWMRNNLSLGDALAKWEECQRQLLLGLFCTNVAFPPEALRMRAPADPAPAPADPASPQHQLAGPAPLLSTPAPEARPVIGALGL

| SMILES | activity at 40 µM (primary human adipocytes; Homo sapiens, Adipocyte, primary adipocytes, 1 h preincubation with NG-497 40 μM, within the third hour after pretreatment, read-out: lipolytic activity regained after inhibitor removal) [%] | Forskolin-induced FA release (primary human adipocytes; primary human adipocytes, NG-497 40 μM, Forskolin 5 μM, 2 h, [9,10-3H] oleic acid label) | efficacy against human ATGL (human ATGL) |
| --- | --- | --- | --- |
| CCOc1ccc(-c2cc(OC)cc(C(=O)OC(C)C)n2)cc1 [NG-497] | ~40 | diminished Forskolin-induced FA release to basal level |  |
| CN(C)C(=O)Nc1cccc(-c2ccc(N(C)C)cc2)c1 [Atglistatin, reference compound] |  |  | ineffective |
